Molecular target: recombinant human ROCK-1 (Homo sapiens, UniProt Q13464)
Test: In-vitro inhibitory activity on recombinant human ROCK-1 (IMAP fluorescence polarisation, fluorescein-labelled peptide)
Assay type: biochemical
Conditions: for IC50: read-out: ROCK-I pIC50 (converted)
Procedure: In-Vitro Determination of Inhibitory Activity of Compounds of the Invention on Recombinant Human ROCK-1
10 μl of a 0.1 ng/μl solution of recombinant human ROCK-1 in assay buffer containing 2 mM dithiothreitol, is then added to each well, yielding a final test compound concentration of 10 μM. Following a one hour incubation at room temperature in the dark, enzyme activity is detected by adding 60 μl of IMAP binding reagent (Molecular Devices) to each well.

recombinant human ROCK-1, sequence (Q13464 whole entry): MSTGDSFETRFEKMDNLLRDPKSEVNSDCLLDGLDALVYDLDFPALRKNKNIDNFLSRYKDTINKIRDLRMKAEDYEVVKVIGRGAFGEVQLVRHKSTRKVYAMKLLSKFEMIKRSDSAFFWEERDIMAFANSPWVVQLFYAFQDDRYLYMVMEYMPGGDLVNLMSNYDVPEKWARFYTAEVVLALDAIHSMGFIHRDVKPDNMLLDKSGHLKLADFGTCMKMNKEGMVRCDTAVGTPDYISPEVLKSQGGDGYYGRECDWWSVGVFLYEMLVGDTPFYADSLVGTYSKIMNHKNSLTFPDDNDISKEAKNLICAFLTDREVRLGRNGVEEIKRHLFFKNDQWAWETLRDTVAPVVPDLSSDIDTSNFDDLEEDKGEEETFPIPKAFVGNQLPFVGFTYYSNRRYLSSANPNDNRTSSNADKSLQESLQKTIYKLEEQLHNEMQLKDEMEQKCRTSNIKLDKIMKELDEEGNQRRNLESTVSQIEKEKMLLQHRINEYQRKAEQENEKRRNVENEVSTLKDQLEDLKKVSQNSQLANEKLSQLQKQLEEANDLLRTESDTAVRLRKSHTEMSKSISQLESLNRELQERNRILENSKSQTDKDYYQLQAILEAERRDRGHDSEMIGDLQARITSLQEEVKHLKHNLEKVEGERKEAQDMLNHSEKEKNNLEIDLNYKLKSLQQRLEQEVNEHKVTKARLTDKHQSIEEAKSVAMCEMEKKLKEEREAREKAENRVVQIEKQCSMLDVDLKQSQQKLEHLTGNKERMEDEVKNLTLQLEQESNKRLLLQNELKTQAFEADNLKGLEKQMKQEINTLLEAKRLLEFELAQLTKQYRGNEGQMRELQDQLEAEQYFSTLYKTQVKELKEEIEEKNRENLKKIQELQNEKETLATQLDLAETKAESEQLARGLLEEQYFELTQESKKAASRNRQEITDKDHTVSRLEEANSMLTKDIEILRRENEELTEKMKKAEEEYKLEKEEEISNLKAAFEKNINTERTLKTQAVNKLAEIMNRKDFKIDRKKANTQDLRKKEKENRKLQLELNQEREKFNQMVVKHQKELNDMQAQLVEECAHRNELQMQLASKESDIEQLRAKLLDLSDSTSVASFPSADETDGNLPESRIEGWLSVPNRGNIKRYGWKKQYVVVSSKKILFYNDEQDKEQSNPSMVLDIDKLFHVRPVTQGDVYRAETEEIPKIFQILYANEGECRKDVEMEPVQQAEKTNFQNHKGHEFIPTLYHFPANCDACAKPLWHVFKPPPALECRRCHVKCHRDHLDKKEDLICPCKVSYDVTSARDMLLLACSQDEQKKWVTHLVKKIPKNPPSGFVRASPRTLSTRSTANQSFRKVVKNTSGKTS

| Compound | IC50 | ROCK-I pIC50 (recombinant human ROCK-1, dose response curve, IC50 = concentration causing 50% inhibition of the enzymatic activity) |
| --- | --- | --- |
| Nc1nccc2cc(OC3CCCN(Cc4ccc[nH]4)C3)ccc12 (stereo not drawn) [Example 7F, 6-[1-(1H-Pyrrol-2-ylmethyl)piperidin-3-yloxy]isoquinolin-1-ylamine] | 0.126 µM | – |
| Nc1nccc2cc(OC3CCCN(Cc4cccs4)C3)ccc12 (stereo not drawn) [Example 7G, 6-(1-Thiophen-2-ylmethylpiperidin-3-yloxy)isoquinolin-1-ylamine] | 0.251 µM | – |
| Cc1ccc(CN2CCC[C@H](Oc3ccc4c(N)nccc4c3)C2)cc1 [Example 8B, (S)-6-[1-(4-Methylbenzyl)piperidin-3-yloxy]isoquinolin-1-ylamine] | 0.158 µM | – |
| Nc1nccc2cc(SC3CCCNC3)ccc12 (stereo not drawn) [Example 12, 6-(Piperidin-3-ylsulfanyl)isoquinolin-1-ylamine] | 0.501 µM | – |
| Nc1nccc2cc(S[C@H]3CCNC3)ccc12 [Example 13A, (S)-6-(Pyrrolidin-3-ylsulfanyl)isoquinolin-1-ylamine] | 0.631 µM | – |
| Nc1nccc2cc(S[C@@H]3CCNC3)ccc12 [Example 13B, (R)-6-(Pyrrolidin-3-ylsulfanyl)isoquinolin-1-ylamine] | 0.631 µM | – |
| Nc1nccc2cc(SC3CCNCC3)ccc12 [Example 13C, 6-(Piperidin-4-ylsulfanyl)isoquinolin-1-ylamine] | 0.631 µM | – |
| Cc1cc2c(N)nccc2cc1OC1CCCN(Cc2ccccc2)C1 (stereo not drawn) [Example 19A] | 0.794 µM | – |
| Nc1nccc2cc(OC3CCCN(CCOc4ccccc4)C3)ccc12 (stereo not drawn) [Example 21, 6-[1-(2-Phenoxyethyl)piperidin-3-yloxy]isoquinolin-1-ylamine] | 0.2 µM | – |
| CC(c1ccccc1)N1CCC[C@H](Oc2ccc3c(N)nccc3c2)C1 (stereo partly drawn) [Example 21G, (S)-6-[1-(1-Phenylethyl)piperidin-3-yloxy]isoquinolin-1-ylamine] | 0.2 µM | – |
| COc1ccc(CN2CCCC(Oc3ccc4c(=O)[nH]ccc4c3)C2)cc1 (stereo not drawn) [Example 23D, 6-[1-(4-Methoxybenzyl)piperidin-3-yloxy]-2H-isoquinolin-1-one] | 0.398 µM | – |
| O=c1[nH]ccc2cc(SC3CCNCC3)ccc12 [Example 25, 6-(Piperidin4-ylsulfanyl)-2H-isoquinolin-1-one] | 0.2 µM | – |
| O=c1[nH]cc(Br)c2cc(O[C@H]3CCCNC3)ccc12 [Example 29] | 0.316 µM | – |
| Cc1ccc(CN2CCC(Oc3ccc4c(=O)[nH]ccc4c3)CC2)cc1 [Example 30A, 6-[1-(4-Methylbenzyl)piperidin-4-yloxy]-2H-isoquinolin-1-one] | – | 6.1 |
| O=c1[nH]ccc2cc(OC3CCN(Cc4ccco4)CC3)ccc12 [Example 30E, 6-(1-Furan-2-ylmethylpiperidin-4-yloxy)-2H-isoquinolin-1-one] | 0.501 µM | – |
| CN1CCC(Oc2ccc3c(=O)[nH]ccc3c2)CC1 [Example 30G, 6-(1-Methylpiperidin-4-yloxy)-2H-isoquinolin-1-one] | 0.631 µM | – |
| O=c1[nH]ccc2cc(OC3CCN(CCCO)CC3)ccc12 [Example 31C, 6-[1-(3-Hydroxypropyl)piperidin-4-yloxy]-2H-isoquinolin-1-one] | 0.794 µM | – |
| O=c1[nH]ccc2cc(OC3CCN(CCO)CC3)ccc12 [Example 31E, 6-[1-(2-Hydroxyethyl)piperidin-4-yloxy]-2H-isoquinolin-1-one] | 0.794 µM | – |
| COc1cccc(CN2CCC(Oc3ccc4c(=O)[nH]ccc4c3)CC2)c1 [Example 31F, 6-[1-(3-Methoxybenzyl)piperidin-4-yloxy]-2H-isoquinolin-1-one] | 0.398 µM | – |
| O=c1[nH]ccc2cc(OC3CCN(Cc4ccc[nH]4)CC3)ccc12 [Example 31G, 6-[1-(1 H-Pyrrol-2-ylmethyl)piperidin-4-yloxy]-2H-isoquinolin-1-one] | 0.316 µM | – |
| O=C(CN1CCC[C@H](Oc2ccc3c(=O)[nH]ccc3c2)C1)c1ccccc1 [Example 32B, (S)-6-[1-(2-Oxo-2-phenylethyl)piperidin-3-yloxy]-2H-isoquinolin-1-one] | 0.501 µM | – |
| O=c1[nH]ccc2cc(O[C@H]3CCCN(CCOc4ccccc4)C3)ccc12 [Example 32C, (S)-6-[1-(2-Phenoxyethyl)piperidin-3-yloxy]-2H-isoquinolin-1-one] | 0.631 µM | – |
| O=c1[nH]ccc2cc(O[C@@H]3CCCN(CCOc4ccccc4)C3)ccc12 [Example 32E, (R)-6-[1-(2-Phenoxyethyl)piperidin-3-yloxy]-2H-isoquinolin-1-one] | 0.251 µM | – |
| O=c1[nH]ccc2cc(OC3CCCN(CC4CCCCC4)C3)ccc12 (stereo not drawn) [Example 33C, 6-(1-Cyclohexylmethylpiperidin-3-yloxy)-2H-isoquinolin-1-one] | 0.501 µM | – |

— US7618985B2 (N.V. Organon, priority 2005, dated 2009)
